Measured values as given in US6355649B1, “Method of treating seborrhea with 5-α reductase inhibitors” (priority 1993, dated 2002).

Tests used:
[1] = Solubility of finasteride polymorphic crystal forms; type: physicochemical; settings: 25° C.
Procedure: Finasteride Form I can be prepared by dissolving finasteride in glacial acetic acid (ca. 100 mg/ml) and adding water with stirring until the weight % of water equals or exceeds 84%. The resulting solid phase is collected by filtration and dried under vacuum and at about 50° C. […] The x-ray powder diffraction pattern is characterized by d-spacings of 6.44, 5.69, 5.36, 4.89, 4.55, 4.31, 3.85, 3.59 and 3.14. […] The solubilities in water and cyclohexane at 25° C. are 0.05+0.02 and 0.27+0.05 mg/gm respectively. In addition, Form I of finasteride can be prepared by recrystallization from dry (H2O<1 mg/ml) ethyl acetate and isopropyl acetate. The isolated solids are dried under vacuum at about 50° C. and have the same physical characterization data as given above.
Form II of finasteride can be prepared by dissolving finasteride in glacial acetic acid (ca. 100 mg/ml) and adding water with stirring until the weight % of water equals about 75% but not in excess of 80%. The resulting solid phase is collected by filtration and dried under vacuum and at about 100° C. […] The x-ray powder diffraction pattern is characterized by d-spacings of 14.09, 10.36, 7.92, 7.18, 6.40, 5.93, 5.66, 5.31, 4.68, 3.90, 3.60 and 3.25. […] The solubilities in water and cyclohexane at 25° C. are 0.16+0.02 and 0.42+0.05 mg/gm respectively. In addition, Form II of finasteride can be prepared by recrystallization from ethyl acetate containing between 2 to 30 mg/ml of water and isopropyl acetate containing between 2 to 15 mg/ml of water. The isolated solids are dried under vacuum at about 80° C. and have the same physical characterization data as given above. Form II can also be prepared by heating Form I up to about 150° C., holding for about one hour and cooling back to room temperature. The Form II prepared in this manner has the same physical characterization data as given above.

[2] = test system: DHT content in scalp tissue; assay: DHT content in scalp tissue after oral finasteride in men with male pattern baldness; type: in vivo; settings: orally for 6 weeks, 0.2 mg/day, 1.0 mg/day and 5.0 mgs/day
Procedure: In another test, finasteride was orally administered for 6 weeks to men with male pattern baldness at doses of 0.2 mg/day, 1.0 mg/day and 5.0 mgs/day.

[3] = test system: hair growth (androgenic alopecia); assay: Macrophotography and global photography procedure for detection of hair growth; type: in vivo, patients; settings: dosages below 5 mg/day per patient, for example 1 mg/day or 0.2 mg/day; "it can be shown"
Procedure: Location: ID card Haircount target area
In these clinical photographs, the only variable allowed is the haircount. Film emulsion, lighting, framing, exposure, and reproduction ratios are held constant.
1. The haircount area on the patient is prepared as follows: A small (˜1 mm) dot tattoo is placed at the beginning of the study at the leading edge of the bald area directly anterior to the center of the vertex bald spot, using a commercial tattooing machine or manually (needle and ink). An area approximately one square inch in size, centered at the tattoo at the leading edge of the balding area, is clipped short (˜2 mm). Cut hairs are removed from the area to be photographed, using tape. Compressed air and/or ethanol wipes may also be used to facilitate removal of cut hairs.
2. […]
A trained technician places a transparency over the photographic print and, using a felt tip pen, places a black dot over each visible hair. The dot map transparency is then counted using image analysis with computer assistance.
Photographs are coded with a random number corresponding to study site, visit number and patient allocation number to insure blinding to time. At Month 6, baseline and Month 6 photographs are counted and data analyzed for interim analysis. At Month 12, baseline, Month 6 and Month 12 photographs are counted and data analyzed for the primary endpoint. […]

| Compound | solubility in cyclohexane [1] | solubility in water [1] | DHT content in scalp tissue [2] | hair growth / treatment of androgenic alopecia [3] |
| --- | --- | --- | --- | --- |
| CC(C)(C)NC(=O)[C@H]1CCC2C3CCC4NC(=O)C=C[C@]4(C)C3CC[C@@]21C (stereo partly drawn) [Form I, 17β-(N-tert-butylcarbamoyl)-4-aza-5α-androst-1-ene-3-one] | 0.27 ± 0.05 mg/gm | 0.05 ± 0.02 mg/gm | – | – |
| CC(C)(C)NC(=O)[C@H]1CCC2C3CCC4NC(=O)C=C[C@]4(C)C3CC[C@@]21C (stereo partly drawn) [Form II, 17β-(N-tert-butylcarbamoyl)-4-aza-5α-androst-1-ene-3-one] | 0.42 ± 0.05 mg/gm | 0.16 ± 0.02 mg/gm | – | – |
| CC(C)(C)NC(=O)[C@H]1CC[C@H]2[C@@H]3CC[C@H]4NC(=O)C=C[C@]4(C)[C@H]3CC[C@]12C [finasteride, 17β-(N-tert-butylcarbamoyl)-4-aza-5α-androst-1-ene-3-one] | – | – | significant reduction | promote hair growth |
